Measured values taken from patent publication US20100068181A1, “PYRROLO [3, 2-A] PYRIDINE DERIVATIVES FOR INHIBITING KSP KINESIN ACTIVITY” (Schering Corporation, priority 2006, published 2010).
pIC50: −log10 of the molar value. Where two headings read alike, the source gives them in different places.

Target: T1, KSP (Homo sapiens, UniProt P52732)
T1 sequence (P52732 1-1056): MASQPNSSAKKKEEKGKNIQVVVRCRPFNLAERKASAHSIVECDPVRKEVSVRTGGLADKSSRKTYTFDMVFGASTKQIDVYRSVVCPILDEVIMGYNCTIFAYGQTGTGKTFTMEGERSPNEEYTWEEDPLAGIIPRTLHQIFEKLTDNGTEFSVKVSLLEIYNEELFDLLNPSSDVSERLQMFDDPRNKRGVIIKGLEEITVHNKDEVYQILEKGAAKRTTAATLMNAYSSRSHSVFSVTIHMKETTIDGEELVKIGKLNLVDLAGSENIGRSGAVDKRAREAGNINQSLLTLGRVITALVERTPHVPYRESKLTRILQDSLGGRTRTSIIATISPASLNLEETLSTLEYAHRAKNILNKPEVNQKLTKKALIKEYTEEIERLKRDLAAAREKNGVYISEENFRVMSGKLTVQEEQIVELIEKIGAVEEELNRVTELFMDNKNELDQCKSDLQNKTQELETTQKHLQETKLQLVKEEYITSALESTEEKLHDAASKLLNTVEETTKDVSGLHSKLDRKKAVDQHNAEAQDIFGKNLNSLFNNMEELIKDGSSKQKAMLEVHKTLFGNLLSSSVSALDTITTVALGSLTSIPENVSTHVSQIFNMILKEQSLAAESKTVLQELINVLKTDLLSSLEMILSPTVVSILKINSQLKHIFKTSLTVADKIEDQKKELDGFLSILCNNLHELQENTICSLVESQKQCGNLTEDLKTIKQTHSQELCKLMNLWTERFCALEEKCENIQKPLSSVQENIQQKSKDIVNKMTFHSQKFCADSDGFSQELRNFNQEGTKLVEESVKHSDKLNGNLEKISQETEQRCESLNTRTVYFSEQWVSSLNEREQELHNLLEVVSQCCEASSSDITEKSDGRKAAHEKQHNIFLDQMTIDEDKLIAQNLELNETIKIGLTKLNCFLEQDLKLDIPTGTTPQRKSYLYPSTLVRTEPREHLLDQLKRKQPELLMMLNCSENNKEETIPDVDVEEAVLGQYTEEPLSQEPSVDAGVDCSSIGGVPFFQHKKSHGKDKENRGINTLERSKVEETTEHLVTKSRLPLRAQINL
Assay: KSP inhibitory activity, end-point assay
Assay type: biochemical
Excerpt: The inhibitory activity of the present compounds towards KSP may be assayed by methods known in the art, for example, by using the methods as described in the examples.

[1] = KSP inhibitory activity based on end-point assay, read-out: IC50 Rating
[2] = numerical IC50 values for representative compounds, read-out: IC50

| SMILES | pIC50 [1] | pIC50 [2] |
| --- | --- | --- |
| CC(C)(C)[C@@H]1CCc2nc3cc(C(N)=O)[nH]c3cc2C1 (single isomer, unassigned) [Example 21A] | > 7.00 | 7.52 |
| CC(C)(C)[C@H]1CCc2nc3cc(C(N)=O)[nH]c3cc2C1 (single isomer, unassigned) [Example 21B] | 6.00 to 7.00 |  |
| CNC(=O)c1cc2nc3c(cc2[nH]1)C[C@H](C(C)(C)C)CC3 (single isomer, unassigned) [Example 22A] | > 7.00 | 7.70 |
| CNC(=O)c1cc2nc3c(cc2[nH]1)C[C@@H](C(C)(C)C)CC3 (single isomer, unassigned) [Example 22B] | 6.00 to 7.00 |  |
| CCOC(=O)c1cc2nc3c(cc2[nH]1)CC(C(C)(C)C)CC3 (stereo not shown) [Example 1] | 5.00 to 6.00 |  |
| CC(C)(C)C1CCc2nc3cc(C(N)=O)[nH]c3cc2C1 (stereo not shown) [Example 2] | > 7.00 | 7.52 |
| CNC(=O)c1cc2nc3c(cc2[nH]1)CC(C(C)(C)C)CC3 (stereo not shown) [Example 3] | > 7.00 | 7.30 |
| CCNC(=O)c1cc2nc3c(cc2[nH]1)CC(C(C)(C)C)CC3 (stereo not shown) [Example 4] | 6.00 to 7.00 |  |
| CC(C)(C)C1CCc2nc3cc(C(=O)NCCCCN)[nH]c3cc2C1 (stereo not shown) [Example 5] | 6.00 to 7.00 |  |
| CC(C)(C)C1CCc2nc3cc(C(=O)NCCN)[nH]c3cc2C1 (stereo not shown) [Example 6] | 6.00 to 7.00 |  |
| CC(C)(C)C1CCc2nc3cc(C(=O)NCCO)[nH]c3cc2C1 (stereo not shown) [Example 7] | 6.00 to 7.00 |  |
| CC(C)(C)C1CCc2nc3cc(C(=O)NCCCN)[nH]c3cc2C1 (stereo not shown) [Example 8] | 5.00 to 6.00 |  |
| CC(C)(C)C1CCc2nc3cc(C(=O)NCCCO)[nH]c3cc2C1 (stereo not shown) [Example 9] | 6.00 to 7.00 |  |
| CC(C)(C)C1CCc2nc3cc(C(=O)NCCCCCN)[nH]c3cc2C1 (stereo not shown) [Example 10] | 6.00 to 7.00 |  |
| CC(C)(C)C1CCc2nc3cc(C(=O)NCCCCCO)[nH]c3cc2C1 (stereo not shown) [Example 11] | 5.00 to 6.00 |  |
| CC(C)(C)C1CCc2nc3cc(C(=O)NCCCCCCO)[nH]c3cc2C1 (stereo not shown) [Example 12] | < 5.00 |  |
| CC(C)(C)C1CCc2nc3cc(C(=O)NCCCCO)[nH]c3cc2C1 (stereo not shown) [Example 13] | 5.00 to 6.00 |  |
| CC(C)(C)C1CCc2nc3cc(C(=O)NCCCCCCN)[nH]c3cc2C1 (stereo not shown) [Example 14] | 6.00 to 7.00 |  |
| CC(C)(C)C1CCc2nc3cc(C(=O)NCCc4ccc(O)cc4)[nH]c3cc2C1 (stereo not shown) [Example 15] | < 5.00 |  |
| CN1CCN(C(=O)c2cc3nc4c(cc3[nH]2)CC(C(C)(C)C)CC4)CC1 (stereo not shown) [Example 16] | < 5.00 |  |
| CC(C)(C)C1CCc2nc3cc(C(=O)NN)[nH]c3cc2C1 (stereo not shown) [Example 17] | > 7.00 |  |
| CC(C)(C)C1CCc2nc3cc(C(=O)NCc4ccccc4)[nH]c3cc2C1 (stereo not shown) [Example 18] | < 5.00 |  |
| CC(C)(C)C1CCc2nc3cc(C(=O)NCc4cccnc4)[nH]c3cc2C1 (stereo not shown) [Example 19] | < 5.00 |  |
| C[C@@H](CO)NC(=O)c1cc2nc3c(cc2[nH]1)CC(C(C)(C)C)CC3 (stereo partly shown) [Example 20] | 5.00 to 6.00 |  |
| CC(C)(C)C1CCc2nc3cc(CO)[nH]c3cc2C1 (stereo not shown) [Example 23] | > 7.00 | 7.40 |

| SMILES | pIC50 [1] | pIC50 [2] |
| --- | --- | --- |
| CC(C)(C)C1CCc2nc3cc(CN)[nH]c3cc2C1 (stereo not shown) [Example 25] | 6.00 to 7.00 |  |
| CC(C)(C)C1CCc2nc3c([N+](=O)[O-])c(C(N)=O)[nH]c3cc2C1 (stereo not shown) [Example 26] | < 5.00 |  |
| CC(C)(C)C1CCc2nc3c(N)c(C(N)=O)[nH]c3cc2C1 (stereo not shown) [Example 27] | 6.00 to 7.00 |  |
| C=Cc1cc2nc3c(cc2[nH]1)CC(C(C)(C)C)CC3 (stereo not shown) [Example 28] | 5.00 to 6.00 |  |
| CC(O)c1cc2nc3c(cc2[nH]1)CC(C(C)(C)C)CC3 (stereo not shown) [Example 29] | 6.00 to 7.00 |  |
| CC(=O)c1cc2nc3c(cc2[nH]1)CC(C(C)(C)C)CC3 (stereo not shown) [Example 30] | 6.00 to 7.00 |  |
| CC(=NO)c1cc2nc3c(cc2[nH]1)CC(C(C)(C)C)CC3 (stereo not shown) [Example 31] | < 5.00 |  |
| CC(C)(C)C1CCc2nc3cc(COC(=O)c4ccccc4)[nH]c3cc2C1 (stereo not shown) [Example 32] | < 5.00 |  |
| CC(C)(C)C1CCc2nc3cc(CC#N)[nH]c3cc2C1 (stereo not shown) [Example 33] | 5.00 to 6.00 |  |
| CCOC(=O)c1[nH]c2cc3c(nc2c1Br)CCC(C(C)(C)C)C3 (stereo not shown) [Example 34] | < 5.00 |  |
| CC(C)(C)C1CCc2nc3c(Br)c(C(N)=O)[nH]c3cc2C1 (stereo not shown) [Example 35] | < 5.00 |  |
| Cc1[nH]c2cc3c(nc2c1CCO)CCC(C(C)(C)C)C3 (stereo not shown) [Example 36] | < 5.00 |  |
| CC(C)(C)C1CCc2nc3c(CCO)c(CO)[nH]c3cc2C1 (stereo not shown) [Example 37] | < 5.00 |  |
| CCOC(=O)c1[nH]c2cc3c(nc2c1/C=C/C(=O)OC)CCC(C(C)(C)C)C3 (stereo not shown) [Example 39] | < 5.00 |  |
| CC(C)(C)C1CCc2nc3c(CCC(N)=O)c(C(N)=O)[nH]c3cc2C1 (stereo not shown) [Example 40] | 5.00 to 6.00 |  |
| CC(C)(C)C1CCc2nc3c(CCC#N)c(C#N)[nH]c3cc2C1 (stereo not shown) [Example 41] | 5.00 to 6.00 |  |
| CCOC(=O)c1cc2nc3c(cc2n1C(C)=O)CC(C(C)(C)C)CC3 (stereo not shown) [Example 42] | < 5.00 |  |
| CC(C)(C)C1CCc2nc3cc(/C=N/NC(N)=S)[nH]c3cc2C1 (stereo not shown) [Example 43] | < 5.00 |  |
| CC(=O)NC(Cc1c(C(N)=O)[nH]c2cc3c(nc12)CCC(C(C)(C)C)C3)C(N)=O (stereo not shown) [Example 44] | < 5.00 |  |
| CCOC(=O)c1[nH]c2cc3c(nc2c1C)CCC(C(C)(C)C)C3 (stereo not shown) [Example 45] | < 5.00 |  |
| Cc1c(C(N)=O)[nH]c2cc3c(nc12)CCC(C(C)(C)C)C3 (stereo not shown) [Example 46] | < 5.00 |  |
| CCOC(=O)c1[nH]c2cc3c(nc2c1CC)CCC(C(C)(C)C)C3 (stereo not shown) [Example 47] | < 5.00 |  |
| CCc1c(C(N)=O)[nH]c2cc3c(nc12)CCC(C(C)(C)C)C3 (stereo not shown) [Example 48] | 5.00 to 6.00 |  |
| CCOC(=O)c1[nH]c2cc3c(nc2c1CCCO)CCC(C(C)(C)C)C3 (stereo not shown) [Example 49] | < 5.00 |  |
| CC(C)(C)C1CCc2nc3c(CCCO)c(C(N)=O)[nH]c3cc2C1 (stereo not shown) [Example 50] | 6.00 to 7.00 |  |

| SMILES | pIC50 [1] | pIC50 [2] |
| --- | --- | --- |
| CCOC(=O)c1[nH]c2cc3c(nc2c1CCCN)CCC(C(C)(C)C)C3 (stereo not shown) [Example 51] | < 5.00 |  |
| CC(C)(C)OC(=O)NCCCc1c(C(N)=O)[nH]c2cc3c(nc12)CCC(C(C)(C)C)C3 (stereo not shown) [Example 52] | < 5.00 |  |
| CC(C)(C)C1CCc2nc3c(CCCN)c(C(N)=O)[nH]c3cc2C1 (stereo not shown) [Example 53] | < 5.00 |  |
| CCOC(=O)c1[nH]c2cc3c(nc2c1CC(O)CO)CCC(C(C)(C)C)C3 (stereo not shown) [Example 54] | < 5.00 |  |
| CC(C)(C)C1CCc2nc3c(CC(O)CO)c(C(N)=O)[nH]c3cc2C1 (stereo not shown) [Example 55] | < 5.00 |  |
| CC(C)(C)C1CCc2nc3c(C#CCCO)c(C(N)=O)[nH]c3cc2C1 (stereo not shown) [Example 56] | < 5.00 |  |
| CC(C)(C)C1CCc2nc3c(CCCCO)c(C(N)=O)[nH]c3cc2C1 (stereo not shown) [Example 57] | 6.00 to 7.00 |  |
| CC(C)(C)C1CCc2nc3c(C#CCCCO)c(C(N)=O)[nH]c3cc2C1 (stereo not shown) [Example 58] | < 5.00 |  |
| CC(C)(C)C1CCc2nc3c(CCCCCO)c(C(N)=O)[nH]c3cc2C1 (stereo not shown) [Example 59] | 5.00 to 6.00 |  |
| CCc1c(C(=O)NCCN)[nH]c2cc3c(nc12)CCC(C(C)(C)C)C3 (stereo not shown) [Example 60] | 6.00 to 7.00 |  |
| CCOC(=O)c1[nH]c2cc3c(nc2c1NC(=O)COC(C)=O)CCC(C(C)(C)C)C3 (stereo not shown) [Example 62] | < 5.00 |  |
| CC(C)(C)C1CCc2nc3c(NC(=O)CO)c(C(N)=O)[nH]c3cc2C1 (stereo not shown) [Example 63] | 5.00 to 6.00 |  |
| CCOC(=O)c1[nH]c2cc3c(nc2c1NCCOC)CCC(C(C)(C)C)C3 (stereo not shown) [Example 64] | < 5.00 |  |
| CCOC(=O)c1[nH]c2cc3c(nc2c1NCCO)CCC(C(C)(C)C)C3 (stereo not shown) [Example 65] | < 5.00 |  |
| CC(C)(C)C1CCc2nc3c(NCCO)c(C(N)=O)[nH]c3cc2C1 (stereo not shown) [Example 66] | 5.00 to 6.00 |  |
| CCOC(=O)c1[nH]c2cc3c(nc2c1NCCCO)CCC(C(C)(C)C)C3 (stereo not shown) [Example 67] | < 5.00 |  |
| CC(C)(C)C1CCc2nc3c(NS(C)(=O)=O)c(C(N)=O)[nH]c3cc2C1 (stereo not shown) [Example 68] | 5.00 to 6.00 |  |
| CCOC(=O)c1c(Cl)[nH]c2cc3c(nc12)CCC(C(C)(C)C)C3 (stereo not shown) [Example 69] | < 5.00 |  |
| CCOC(=O)c1c[nH]c2cc3c(nc12)CCC(C(C)(C)C)C3 (stereo not shown) [Example 70] | < 5.00 |  |
| COC(=O)c1c[nH]c2cc3c(nc12)CCC(C(C)(C)C)C3 (stereo not shown) [Example 71] | < 5.00 |  |
| CC(C)(C)C1CCc2nc3c(C(=O)NCCO)c[nH]c3cc2C1 (stereo not shown) [Example 72] | 5.00 to 6.00 |  |
| CC(C)(C)C1CCc2nc3c(C(=O)NCCN)c[nH]c3cc2C1 (stereo not shown) [Example 73] | < 5.00 |  |
| CC(C)(C)C1CCc2nc3c(C(=O)NCCN4CCNCC4)c[nH]c3cc2C1 (stereo not shown) [Example 74] | < 5.00 |  |
| CC(C)(C)C1CCc2nc3c(C(=O)NCc4cccnc4)c[nH]c3cc2C1 (stereo not shown) [Example 75] | < 5.00 |  |
